Experiments:
Test in all cases: Kinase selectivity, scanMAX Kinase assay panel (DiscoverX), % control at 1 uM
Format in all cases: binding
[1] = biological target: T1, scanMAX Kinase assay panel (Homo sapiens, UniProt Q13043); settings: MST1; 1 uM; read-out: Percent Control (%)
T1 construct: purchased DiscoverX
T1 sequence (Q13043 1-487): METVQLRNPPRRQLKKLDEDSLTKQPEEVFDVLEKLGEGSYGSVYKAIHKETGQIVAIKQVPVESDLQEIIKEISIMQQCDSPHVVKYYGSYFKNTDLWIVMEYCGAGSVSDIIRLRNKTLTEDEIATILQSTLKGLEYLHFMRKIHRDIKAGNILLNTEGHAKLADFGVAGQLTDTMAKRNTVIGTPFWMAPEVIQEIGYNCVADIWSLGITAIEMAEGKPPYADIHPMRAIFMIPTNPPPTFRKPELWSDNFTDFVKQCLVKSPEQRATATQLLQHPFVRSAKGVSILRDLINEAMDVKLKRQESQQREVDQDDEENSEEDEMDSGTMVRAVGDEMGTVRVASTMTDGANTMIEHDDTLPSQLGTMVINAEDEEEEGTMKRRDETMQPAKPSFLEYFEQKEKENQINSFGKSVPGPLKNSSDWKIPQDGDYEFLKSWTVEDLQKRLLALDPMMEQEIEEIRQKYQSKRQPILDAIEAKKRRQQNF
Method in brief: (§1)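 Binding across the scanMAX kinase panel was tested at 1 uM compound. % control = (compound − positive control)/(negative control − positive control) × 100; below 35 counted as active.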

[2] = biological target: T2, scanMAX Kinase assay panel (Homo sapiens, UniProt P78368); settings: CSNK1G2; 1 uM; read-out: Percent Control (%)
T2 construct: purchased DiscoverX
Method in brief: as §1

[3] = biological target: T3, scanMAX Kinase assay panel (Homo sapiens, UniProt Q9UQB9); settings: AURKC; 1 uM; read-out: Percent Control (%)
T3 construct: purchased DiscoverX
T3 sequence (Q9UQB9 1-309): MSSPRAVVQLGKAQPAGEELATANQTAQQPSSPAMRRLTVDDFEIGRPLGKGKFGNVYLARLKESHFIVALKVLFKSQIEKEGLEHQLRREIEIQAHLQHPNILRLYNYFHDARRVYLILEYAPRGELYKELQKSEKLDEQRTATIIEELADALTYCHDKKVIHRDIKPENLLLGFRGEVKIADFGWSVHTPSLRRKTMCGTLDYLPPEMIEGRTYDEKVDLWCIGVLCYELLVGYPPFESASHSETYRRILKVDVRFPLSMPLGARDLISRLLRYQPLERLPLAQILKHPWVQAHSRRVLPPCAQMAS
Method in brief: as §1

[4] = biological target: T4, scanMAX Kinase assay panel (Homo sapiens, UniProt O75747); settings: PIK3C2G; 1 uM; read-out: Percent Control (%)
T4 construct: purchased DiscoverX
T4 sequence (O75747 1-1486): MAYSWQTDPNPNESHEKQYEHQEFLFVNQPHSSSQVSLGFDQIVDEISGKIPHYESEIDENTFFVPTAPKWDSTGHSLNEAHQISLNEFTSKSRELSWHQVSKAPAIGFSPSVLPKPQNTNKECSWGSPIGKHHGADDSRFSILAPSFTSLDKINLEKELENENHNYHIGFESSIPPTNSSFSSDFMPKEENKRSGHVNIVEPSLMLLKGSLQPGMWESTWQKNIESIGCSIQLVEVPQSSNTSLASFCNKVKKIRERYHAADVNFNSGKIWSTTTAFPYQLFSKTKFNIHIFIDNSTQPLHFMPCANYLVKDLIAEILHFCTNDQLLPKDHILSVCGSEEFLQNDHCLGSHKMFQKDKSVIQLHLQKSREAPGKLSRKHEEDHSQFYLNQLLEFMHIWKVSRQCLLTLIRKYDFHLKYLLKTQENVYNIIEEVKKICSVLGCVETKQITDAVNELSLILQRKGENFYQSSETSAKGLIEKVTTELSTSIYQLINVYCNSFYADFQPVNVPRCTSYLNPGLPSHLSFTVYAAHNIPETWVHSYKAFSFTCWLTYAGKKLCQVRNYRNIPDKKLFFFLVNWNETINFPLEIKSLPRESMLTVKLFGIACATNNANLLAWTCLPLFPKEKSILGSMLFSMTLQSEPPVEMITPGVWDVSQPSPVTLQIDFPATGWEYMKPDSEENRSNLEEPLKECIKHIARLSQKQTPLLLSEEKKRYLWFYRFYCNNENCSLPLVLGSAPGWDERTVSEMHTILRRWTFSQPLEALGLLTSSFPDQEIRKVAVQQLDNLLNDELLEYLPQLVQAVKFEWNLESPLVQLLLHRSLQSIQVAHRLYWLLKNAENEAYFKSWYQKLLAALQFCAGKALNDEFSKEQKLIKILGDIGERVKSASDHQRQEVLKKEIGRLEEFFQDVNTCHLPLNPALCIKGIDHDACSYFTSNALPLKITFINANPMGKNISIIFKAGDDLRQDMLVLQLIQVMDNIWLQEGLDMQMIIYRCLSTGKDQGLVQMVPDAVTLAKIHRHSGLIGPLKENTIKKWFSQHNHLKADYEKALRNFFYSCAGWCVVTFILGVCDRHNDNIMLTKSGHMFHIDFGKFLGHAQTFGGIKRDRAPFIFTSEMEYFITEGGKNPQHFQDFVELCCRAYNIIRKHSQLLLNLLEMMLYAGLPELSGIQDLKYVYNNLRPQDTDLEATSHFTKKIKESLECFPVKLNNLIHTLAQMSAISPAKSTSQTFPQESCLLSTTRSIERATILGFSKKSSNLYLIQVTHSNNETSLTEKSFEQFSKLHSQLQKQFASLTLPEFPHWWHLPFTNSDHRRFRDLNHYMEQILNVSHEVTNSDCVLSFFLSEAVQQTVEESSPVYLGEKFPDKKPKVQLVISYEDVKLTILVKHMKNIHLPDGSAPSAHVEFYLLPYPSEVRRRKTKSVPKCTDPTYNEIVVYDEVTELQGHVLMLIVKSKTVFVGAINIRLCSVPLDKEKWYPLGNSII
Method in brief: as §1

[5] = biological target: T5, scanMAX Kinase assay panel (Homo sapiens, UniProt P41240); settings: CSK; 1 uM; read-out: Percent Control (%)
T5 construct: purchased DiscoverX
Method in brief: as §1

T2 sequence (P78368 whole entry): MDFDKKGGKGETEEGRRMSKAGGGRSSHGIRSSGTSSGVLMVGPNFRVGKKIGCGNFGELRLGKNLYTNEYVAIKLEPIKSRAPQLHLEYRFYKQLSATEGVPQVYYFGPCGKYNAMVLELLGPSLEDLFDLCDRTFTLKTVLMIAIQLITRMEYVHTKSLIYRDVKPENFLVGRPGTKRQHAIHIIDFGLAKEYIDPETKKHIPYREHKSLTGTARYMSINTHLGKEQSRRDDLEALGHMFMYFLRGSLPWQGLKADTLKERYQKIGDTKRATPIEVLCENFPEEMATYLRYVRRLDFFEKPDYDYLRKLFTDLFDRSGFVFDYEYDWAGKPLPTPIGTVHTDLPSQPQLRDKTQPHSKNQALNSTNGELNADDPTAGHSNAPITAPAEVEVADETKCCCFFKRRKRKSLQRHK
T5 sequence (P41240 whole entry): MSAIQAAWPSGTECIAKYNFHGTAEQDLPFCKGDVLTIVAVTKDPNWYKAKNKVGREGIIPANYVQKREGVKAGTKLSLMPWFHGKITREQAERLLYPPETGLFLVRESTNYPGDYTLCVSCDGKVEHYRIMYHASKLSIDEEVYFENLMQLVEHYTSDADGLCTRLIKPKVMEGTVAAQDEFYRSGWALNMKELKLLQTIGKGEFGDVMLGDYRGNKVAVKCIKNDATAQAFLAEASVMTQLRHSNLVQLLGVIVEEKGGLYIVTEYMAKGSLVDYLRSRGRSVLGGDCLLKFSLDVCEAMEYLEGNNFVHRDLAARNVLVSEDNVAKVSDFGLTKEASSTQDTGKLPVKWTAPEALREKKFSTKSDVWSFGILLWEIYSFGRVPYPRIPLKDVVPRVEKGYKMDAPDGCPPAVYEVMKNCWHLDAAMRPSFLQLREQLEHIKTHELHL

| Compound | remaining binding at 1 µM [1] | remaining binding at 1 µM [2] | remaining binding at 1 µM [3] | remaining binding at 1 µM [4] | remaining binding at 1 µM [5] |
| --- | --- | --- | --- | --- | --- |
| Cc1ccc(C(=O)Nc2ccc(CN3CCN(C)CC3)c(C(F)(F)F)c2)cc1C#Cc1cnc2c(Nc3cnn(C)c3)cccn12 [Example 1, 4-methyl-3-((8-((1-methyl-1H-pyrazol-4-yl)amino)imidazo[1,2-a]pyridin-3-yl)ethynyl)-N-(4-((4-methylpiperazin-1-yl)methyl)-3-(trifluoromethyl)phenyl)benzamide] | 27% | 91% | 1% | 75% | 2% |
| Cc1cn(-c2cc(NC(=O)c3ccc(C)c(C#Cc4cnc5c(Nc6cnn(C)c6)cccn45)c3)cc(C(F)(F)F)c2)cn1 [Example 12, 4-methyl-N-(3-(4-methyl-1H-imidazol-1-yl)-5-(trifluoromethyl)phenyl)-3-((8-((1-methyl-1H-pyrazol-4-yl)amino)imidazo[1,2-a]pyridin-3-yl)ethynyl)benzamide] | 84% | 94% | 48% | 100% | 1% |
| Cc1ccc(NC(=O)C2(C(=O)Nc3ccc(F)cc3)CC2)cc1C#Cc1cnc2c(Nc3cnn(C(C)C)c3)cccn12 [Example 78] | 100% | 100% | 88% | 100% | 98% |

Source: patent US10870647B2, “Imidazopyridine derivative, method for preparing same, and pharmaceutical composition containing same as active ingredient for preventing or treating cancer” (DAEGU-GYEONGBUK MEDICAL INNOVATION FOUNDATION, priority 2016, dated 2020)
